Data taken from US20130089912A1, “METHODS AND COMPOSITIONS FOR THE STABILIZATION OF BIOLOGIC MATERIAL” (priority 2011, published 2013).
Values joined by “and” are separate entries in the source; they are usually repeats but may differ in a detail not shown here. Equal entries are not always repeated. Structures can show the parent of a compound that is named as a salt. Where two headings read alike, the source gives them in different places.

Tests used:
[1] = test system: mouse macrophage cell line; conditions: cited from earlier work; for Log EC50: logarithm of EC50 in uM, matches the EC50 values of Weaver et al. (2010)
[2] = Differential scanning calorimetry of DPPC unilamellar vesicles mixed with test compound (screening assay for toxic membrane interactions)
[3] = choline salt of the named anion
[4] = cellular toxicity, values reproduced from Weaver et al. (2010)
[5] = 10 mM compound, DPPC liposomes, HEPES buffer pH 7.40
[6] = 10 mM compound, DPPC liposomes, HEPES buffer pH 7.40, scan 20 to 50° C., equilibrium scans
[7] = 10 mM compound, compared to DPPC control scan from same LUV batch solution
[8] = choline salt 10 mM, DPPC vesicle assay, Table 2
[9] = 10 mM compound, DPPC liposomes, HEPES buffer pH 7.40, NR = not resolvable
[10] = 10 mM compound, initial heating scan

Compound	EC50 [1, 4]	Effect on DPPC main gel-liquid crystal phase transition (in words) ([2]; 10 mM compound)	Main Transition ΔH [2, 5]	Main Transition ΔT(1/2) [2, 5]	Main Transition Tm [2, 6]	Change in Main Transition ΔTm [2, 7]	Change in Main Transition ΔΔH [2, 7]	Change in Main Transition ΔΔT(1/2) [2, 7]	Change in Pretransition ΔH [2, 7]	Δ Tm [2, 8]	ΔΔ H [2, 8]	ΔΔ T(1/2) [2, 8]	Pretransition ΔH [2, 9]	further results
2-hydroxyethyl(trimethyl)azanium bis(2,4,4-trimethylpentyl)phosphinate [CTMP]	< 0.25 mM	large decrease in Tm and enthalpy, and increased cooperativity	3.58 kcal/mol	1.48 °C	32.6 °C and 33 °C and 32.58 °C	−21%	−52%	−17%	−100%	−8.08 C	−2011 cal/mole/ C	−0.37 C	–	Log EC50 [1]: 2.39 uM; Decrease of peak width (ΔΔT1/2) compared to control lipid vesicles ([2]; 10 mM compound): 17%; Reduction of main transition Tm compared to DPPC alone ([2]; 10 mM compound): 21%; Reduction of transition enthalpy (in words) ([2]; 10 mM compound, compared to control lipid vesicles): half; Pretransition peak of DPPC (in words) ([2]; 10 mM compound, peak normally at approximately 34° C.): below resolvable limits; Log Pow [3]: 3.60
2-hydroxyethyl(trimethyl)azanium bis(2-ethylhexyl)phosphate [CBEH]	< 0.3 mM	–	0.077 kcal/mol	2.95 °C	42.49 °C	+2.5%	−99%	+16%	−82%	–	–	–	0.066 kcal/mol	Main transition temperature [2, 10]: ~41 °C; Pretransition temperature [2, 10]: ~33 °C; Reduction in main transition enthalpy compared to DPPC in HEPES alone [2, 10]: 99%; Reduction in pretransition enthalpy compared to DPPC in HEPES alone [2, 10]: 82%; Third prominent peak (subtransition) temperature [2, 10]: 27 °C; New peak Tm ([2]; DPPC-CBEH dispersions run starting at 10° C., first heating scan): 21 °C
2-hydroxyethyl(trimethyl)azanium dibutyl phosphate [CDBP]	9 mM and 9.1 mM	no statistically significant effect	7.831 kcal/mol	1.50 °C	41.05 °C	−0.5%	+2%	−6%	−20%	–	–	–	0.44 kcal/mol	–
C[N+](C)(C)CCO.[Cl-] [CCL, choline chloride, reference compound]	–	–	–	–	–	–	–	–	–	–	–	–	–	EC50 [1]: 34 mM; Change in Main Transition ΔTm [2]: +0.8%; Change in Main Transition ΔΔH [2]: +15%; Change in Main Transition ΔΔT(1/2) [2]: −3%; Change in Pretransition ΔH [2]: +51%; Main Transition Tm ([2]; pH 7.4): 41.70 °C; Main Transition ΔH ([2]; pH 7.4): 9.633 kcal/mol; Main Transition ΔT(1/2) ([2]; pH 7.4): 1.55 °C; Pretransition ΔH ([2]; pH 7.4): 0.378 kcal/mol
C[N+](C)(C)CCO.O=P([O-])(O)O [CDHP, 2-hydroxyethyl(trimethyl)azanium dihydrogen phosphate]	20 mM	no statistically significant effect	7.949 kcal/mol	1.33 °C	41.69 °C	+0.7%	+3%	−6%	−54%	+0.52 C	−76 cal/mole/ C	0.131 C	0.248 kcal/mol	Log EC50 [1]: 4.31 uM; Log Pow [3]: −3.15
CC(C)Cc1ccc(C(C)C(=O)[O-])cc1.[Na+] (stereo not drawn) [Ibuprofen sodium salt, ibuprofen sodium salt, reference compound]	–	–	7.222 kcal/mol	1.79 °C	38.82 °C	−6%	−11%	+12%	−13%	–	–	–	0.375 kcal/mol	–
CC(=O)CCC(=O)O [Levulinate]	–	a moderate decrease in Tm, and a large decrease in enthalpy	–	–	–	–	–	–	–	−0.21 C	−2155 cal/mole/ C	0.39 C	–	–
[Cl-].[Na+] [NaCl, sodium chloride, reference compound]	–	–	–	–	–	–	–	–	–	–	–	–	–	EC50 [1]: 63 mM and 60 mM; Change in Main Transition ΔTm [2]: +0.8%; Change in Main Transition ΔΔH [2]: +17%; Change in Main Transition ΔΔT(1/2) [2]: −4%; Change in Pretransition ΔH [2]: +103%; Main Transition Tm ([2]; pH 7.4): 41.72 °C; Main Transition ΔH ([2]; pH 7.4): 9.823 kcal/mol; Main Transition ΔT(1/2) ([2]; pH 7.4): 1.53 °C; Pretransition ΔH ([2]; pH 7.4): 0.508 kcal/mol
CNCCC=C1c2ccccc2CCc2ccccc21 [Nortriptyline hydrochloride, nortriptyline hydrochloride, reference compound]	–	shifted to lower temperatures, with notable main peak broadening	8.078 kcal/mol	1.41 °C	30.66 °C	−26%	+8%	+6%	−100%	–	–	–	–	–
choline formate	–	–	–	–	–	–	–	–	–	–	−733 cal/mole/ C	−0.02 C	–	Effect on DPPC main gel-liquid crystal phase transition (in words) [2]: a moderate increase in Tm and a moderate decrease in enthalpy; Δ Tm [2]: +0.31 C
choline lactate	–	a moderate increase in Tm and a moderate decrease in enthalpy	–	–	–	–	–	–	–	+0.37 C	−480 cal/mole/ C	−0.06 C	–	Log Pow [3]: −1.73
choline tartarate	–	–	–	–	–	–	–	–	–	–	+121.9 cal/mole/ C	−0.03 C	–	Δ Tm [2]: +0.35 C
